Each structure is given as a SMILES string. Numbers after ± are expanded uncertainties.

Our source for the Triple point temperature values is the NIST ThermoML archive (doi:10.1016/j.jct.2016.03.009).

For this data set the following is noted: Crystal 2; DSC.

For `[Ag+].[S-2].[S-2].[Sb+3]` [antimony(III) silver(I) sulfide], the Triple point temperature was determined as 648.6 ± 2.1 K.
